Read-outs that look alike come from different tables or passages of the source. Non-standard residues stand in square brackets, D forms with d. Residues, ends and D or L forms follow the SMILES beside them. *: point of attachment. pY = N[C@@H](Cc1ccc(OP(=O)(O)O)cc1)C(=O)O; Caffeoyl = O=C(/C=C/c1ccc(O)c(O)c1)*

These results are taken from paper PMC12951562, “SH2scan: Mapping SH2 Domain-Ligand Binding Selectivity for Inhibitors and Degraders” (Journal of Medicinal Chemistry, 2026).

What all share (test): biochemical
For one experiment, the target named is T1, FYN (Homo sapiens, UniProt P06241).
T1 construct: the DNA-tagged SH2 domain concentrations used in this study were <0.1 nM; made in house; host or cells: HEK293 (transient transfection; unpurified extract)
In kind it is binding.

The next experiment deals with T2, CISH (Homo sapiens, UniProt Q9NSE2).
T2 construct: the DNA-tagged SH2 domain concentrations used in this study were <0.1 nM; made in house; host or cells: HEK293 (transient transfection; unpurified extract)
T2 sequence (Q9NSE2 82-163 limits assumed): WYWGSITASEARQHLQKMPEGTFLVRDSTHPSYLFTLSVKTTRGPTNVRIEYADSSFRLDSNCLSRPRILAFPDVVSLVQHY
In kind it is binding. The settings on record: for remaining activity at 10 µM: read-out: percent of DMSO vehicle control.

The next experiment deals with T3, SH2D1A (Homo sapiens, UniProt O60880).
T3 construct: made in house; host or cells: HEK293 (transient transfection), unpurified extract
T3 sequence (O60880 1-128): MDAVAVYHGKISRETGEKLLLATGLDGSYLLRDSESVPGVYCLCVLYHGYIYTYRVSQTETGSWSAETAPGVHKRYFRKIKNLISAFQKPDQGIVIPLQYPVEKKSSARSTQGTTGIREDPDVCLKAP
In kind it is binding. Conditions: read-out: percent of DMSO vehicle control.

The target of another experiment is T4, STAT3 (Homo sapiens, UniProt P40763).
T4 construct: made in house; host or cells: HEK293 (transient transfection), unpurified extract
The class given is binding.

Experiment [1] deals with T5, STAT3(E616del)-nonphosphorylated (Homo sapiens, UniProt P40763, DEL616-616).
T5 construct: made in house; host or cells: HEK293 (transient transfection), unpurified extract, dephosphorylated by endogenous phosphatases
In kind it is binding.

Experiment [2] has as its target T6, STAT3(N567K)-nonphosphorylated (Homo sapiens, UniProt P40763, N567K).
T6 construct: made in house; host or cells: HEK293 (transient transfection), unpurified extract, dephosphorylated by endogenous phosphatases
The class given is binding.

For experiment [3], the target named is T7, STAT3(S614R)-nonphosphorylated (Homo sapiens, UniProt P40763, S614R).
T7 construct: made in house; host or cells: HEK293 (transient transfection), unpurified extract, dephosphorylated by endogenous phosphatases
In kind it is binding.

In experiment [4] the target is T8, STAT3(Y640F)-nonphosphorylated (Homo sapiens, UniProt P40763, Y640F).
T8 construct: made in house; host or cells: HEK293 (transient transfection), unpurified extract, dephosphorylated by endogenous phosphatases
The class given is binding.

Another experiment concerns the target T9, STAT5A (Homo sapiens, UniProt P42229).
T9 construct: made in house; host or cells: HEK293 (transient transfection), unpurified extract
T9 sequence (P42229 1-794): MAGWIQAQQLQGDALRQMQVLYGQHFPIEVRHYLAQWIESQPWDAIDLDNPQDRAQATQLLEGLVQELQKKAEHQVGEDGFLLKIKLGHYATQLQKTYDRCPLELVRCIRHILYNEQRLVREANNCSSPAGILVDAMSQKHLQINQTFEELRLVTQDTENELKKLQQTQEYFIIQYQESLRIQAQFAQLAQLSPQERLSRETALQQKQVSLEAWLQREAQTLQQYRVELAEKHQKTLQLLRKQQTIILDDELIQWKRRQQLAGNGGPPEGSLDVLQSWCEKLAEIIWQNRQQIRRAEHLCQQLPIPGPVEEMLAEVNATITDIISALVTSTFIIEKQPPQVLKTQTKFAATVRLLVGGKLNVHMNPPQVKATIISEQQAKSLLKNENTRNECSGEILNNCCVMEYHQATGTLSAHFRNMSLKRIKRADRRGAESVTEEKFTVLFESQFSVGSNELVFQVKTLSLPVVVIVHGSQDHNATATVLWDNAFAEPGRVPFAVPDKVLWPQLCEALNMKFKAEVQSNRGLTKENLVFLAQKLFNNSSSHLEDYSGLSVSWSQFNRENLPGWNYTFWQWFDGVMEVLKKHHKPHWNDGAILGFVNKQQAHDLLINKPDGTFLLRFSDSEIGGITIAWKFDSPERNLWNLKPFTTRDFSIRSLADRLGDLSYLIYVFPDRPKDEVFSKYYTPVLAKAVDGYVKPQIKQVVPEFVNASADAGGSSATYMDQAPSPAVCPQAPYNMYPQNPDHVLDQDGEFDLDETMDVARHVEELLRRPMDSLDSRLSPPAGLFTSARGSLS
In kind it is binding.

A further experiment addresses T10, STAT5B (Homo sapiens, UniProt P51692).
T10 construct: made in house; host or cells: HEK293 (transient transfection), unpurified extract
T10 sequence (P51692 1-787): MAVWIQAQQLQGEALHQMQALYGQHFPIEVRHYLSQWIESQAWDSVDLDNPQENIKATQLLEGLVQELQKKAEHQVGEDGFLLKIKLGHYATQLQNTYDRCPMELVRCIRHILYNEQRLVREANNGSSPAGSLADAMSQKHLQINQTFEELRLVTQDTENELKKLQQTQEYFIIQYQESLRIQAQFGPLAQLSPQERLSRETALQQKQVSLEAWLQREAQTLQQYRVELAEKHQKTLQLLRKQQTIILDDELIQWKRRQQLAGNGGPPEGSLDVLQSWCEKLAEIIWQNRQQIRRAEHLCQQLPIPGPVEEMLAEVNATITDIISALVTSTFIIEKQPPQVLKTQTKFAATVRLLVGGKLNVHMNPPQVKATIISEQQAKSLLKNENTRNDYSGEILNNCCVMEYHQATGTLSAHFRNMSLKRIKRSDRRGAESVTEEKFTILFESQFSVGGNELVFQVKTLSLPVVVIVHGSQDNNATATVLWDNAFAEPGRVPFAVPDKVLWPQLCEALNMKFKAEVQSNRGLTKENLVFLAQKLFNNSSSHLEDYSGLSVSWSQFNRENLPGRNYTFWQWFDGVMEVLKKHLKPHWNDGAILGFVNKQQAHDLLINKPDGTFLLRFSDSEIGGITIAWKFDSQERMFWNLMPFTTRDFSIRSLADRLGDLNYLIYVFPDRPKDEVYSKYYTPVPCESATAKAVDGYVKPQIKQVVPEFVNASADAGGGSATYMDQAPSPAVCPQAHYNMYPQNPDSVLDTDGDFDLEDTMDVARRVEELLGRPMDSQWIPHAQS
The class given is binding.

In another experiment the target is T11, ZAP70(SH2dom1.dom2.) (Homo sapiens, UniProt P43403).
T11 sequence (P43403 1-254 limits assumed): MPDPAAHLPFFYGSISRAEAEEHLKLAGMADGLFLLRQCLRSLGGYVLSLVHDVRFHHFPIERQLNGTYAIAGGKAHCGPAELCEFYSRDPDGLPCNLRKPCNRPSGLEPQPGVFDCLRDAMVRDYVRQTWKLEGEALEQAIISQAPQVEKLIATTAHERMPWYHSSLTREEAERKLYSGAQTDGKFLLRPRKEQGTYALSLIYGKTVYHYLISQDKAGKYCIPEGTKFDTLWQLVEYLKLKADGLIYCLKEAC
Conditions: for remaining activity at 10 µM: read-out: percent of DMSO vehicle control.

Where [5] appears, read: primary screen, 10 μM, read-out: percent of DMSO vehicle control.
Setting [6] is: read-out: percent of DMSO vehicle control.

For `C/C(=C\C(=O)N[C@H](C(=O)N1CCC[C@H]1C(=O)N(c1ccccc1)c1ccc(I)cc1)C(C)(C)C)c1ccc(OP(=O)(O)O)cc1` [STAT6-IN-1], the remaining activity at 10 µM at FYN (setting [5]) amounted to 48.2 ± 2.1%; on CISH (primary screen, 10 μM), 1.6 ± 2.3%; at SH2D1A (primary screen, 10 μM), 68.7 ± 3.5%; at STAT3 (setting [5]), 0%; in [1] (setting [5]) it was 0%; in experiment [2] (setting [5]), 0%. The remaining activity at 10 µM worked out at 0% in [3] (setting [5]); 0% in experiment [4] (setting [5]); 0% at STAT5A (setting [5]); 0% on STAT5B (setting [5]); 51.4% at ZAP70(SH2dom1.dom2.). The Kd came to 3600 ± 640 nM on CISH (dose-response, read-out: KD); 180 ± 0.01 nM on STAT3 (dose-response, read-out: KD); 140 ± 35 nM in experiment [1] (dose-response, read-out: KD); 190 ± 107 nM in [2] (dose-response, read-out: KD); 88 ± 31 nM in experiment [3] (dose-response, read-out: KD); 102 ± 44 nM in [4] (dose-response, read-out: KD). Also, the Kd on STAT5A (dose-response, read-out: KD) came to 9.1 ± 4.3 nM; at STAT5B (dose-response, read-out: KD) it was 16 ± 3.2 nM.

Consider `CC[C@H](C)[C@H](NC(=O)[C@H](CCC(=O)O)NC(=O)[C@H](CCC(=O)O)NC(=O)[C@H](Cc1ccc(OP(=O)(O)O)cc1)NC(=O)/C=C/c1ccc(O)c(O)c1)C(=O)N[C@@H](CCC(=O)O)C(=O)O` [Caffeic acid-pYEEIE] (Caffeoyl-[pY]EEIE-OH), for which the dissociation constant Kd at FYN was 0.53 nM; on CISH it was 430 ± 980 nM; at STAT5A it was 4020 ± 1500 nM; on STAT5B it was 4200 ± 2800 nM; on ZAP70(SH2dom1.dom2.), 6900 ± 3.8 nM. For the same compound, the percent of DMSO vehicle control at 10 µM on FYN (setting [6]) worked out at 0%; at STAT3 (setting [6]), 102 ± 22.8%; in [1] (setting [6]) it was 85.5 ± 0.3%; in experiment [2] (setting [6]), 91 ± 2.3%; in [3] (setting [6]) it was 81.4 ± 6.7%; in experiment [4] (setting [6]) it was 131 ± 28.4%. The percent of DMSO vehicle control at 10 µM at STAT5A (setting [6]) is 6.2 ± 0.4%; on STAT5B (setting [6]) it was 19.3 ± 2.8%. Besides, the remaining activity at 10 µM on CISH was found to be 4.9 ± 6.9%; at SH2D1A, 79.8 ± 21.3%; on ZAP70(SH2dom1.dom2.), 32.3 ± 1.6%.

For `CC(=O)N1CC[C@H]2CC[C@@H](C(=O)N[C@@H](CCC(N)=O)C(=O)NC(c3ccccc3)c3ccccc3)N2C(=O)[C@@H](NC(=O)c2cc3cc(C(F)(F)P(=O)(O)O)ccc3[nH]2)C1` [SI-109], the percent of DMSO vehicle control at 10 µM was 97.3% on FYN (setting [6]); 0.4 ± 0.1% on STAT3 (setting [6]); 0.1% in experiment [1] (setting [6]); 0.2% in experiment [2] (setting [6]); 0.1% in [3] (setting [6]); 5.8 ± 3.7% in [4] (setting [6]). The percent of DMSO vehicle control at 10 µM amounted to 101% at STAT5A (setting [6]) and 109% at STAT5B (setting [6]). Besides, the remaining activity at 10 µM at CISH amounted to 102%; at SH2D1A, 87.6%; on ZAP70(SH2dom1.dom2.) it was 129%. Besides, the Kd on STAT3 stood at 15 nM; in experiment [1], 8.7 ± 3.4 nM; in [2], 12 ± 1.8 nM; in [3], 5 ± 0.56 nM; in experiment [4], 78 ± 44 nM; at STAT5A it was 7030 ± 2200 nM. This compound gave a dissociation constant (Kd) at STAT5B of 18000 ± 4000 nM.

What is called Kd is the concentration at which binding is half-saturated.
